Here are results for 17 compounds from US9580430B2, “9H-pyrimido[4,5-B]indoles and related analogs as BET bromodomain inhibitors” (THE REGENTS OF THE UNIVERSITY OF MICHIGAN, priority 2014, dated 2017).

A word on the IC50: it is the concentration at which inhibition is half-maximal.

Experiment [1] deals with T1, recombinant BRD4 BD2 (Homo sapiens, UniProt O60885).
T1 construct: for recombinant BRD4 BD1 and BRD4 BD2 proteins
Kind of experiment: Competitive fluorescence-polarization (FP) binding assay, BRD4 BD2. Further: probe 1.5 nM. The note with it: competitive FP assay; protein 6 nM, probe […]; read-out: IC50 (nM) BRD4 BD2. In outline: (§1)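 FP competition with FAM-labelled probe (ZBA248 or BRD-1F) against preincubated protein/probe complex; BD1 at 10 nM and BD2 at 6 nM final, in 100 mM potassium phosphate pH 6.5, 0.01% Triton X-100. 30 min, room temperature. IC50 by nonlinear regression; Ki also derived, using probe Kd from protein saturation.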

In experiment [2] the test system is MDA-MB-436. The experiment is described as follows: Cell growth inhibition, MDA-MB-436 breast cancer cells (WST-8). The note with it: Homo sapiens, MDA-MB-436, 96 h; 4 days; read-out: IC50 (nM) MDA-MB-436 Cell Line (WST assay). In kind it is cell-based. In outline: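 IC50 was computed from WST-8-based cell counting in MDA-MB-436 cells, with absorbance read at 450 nm.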
Background: Formazan colour is commonly taken as a measure of viable cells.

For experiment [3], the target named is T2, recombinant BRD4 BD1 (Homo sapiens, UniProt O60885).
T2 construct: for recombinant BRD4 BD1 and BRD4 BD2 proteins
Kind of experiment: Competitive fluorescence-polarization (FP) binding assay, BRD4 BD1. Further: probe 1.5 nM. The note with it: competitive FP assay; protein 10 nM, probe […]; read-out: IC50 (nM) BRD4 BD1. The method in brief: as §1

Experiment [4] has as its system MOLM-13. Kind of experiment: Cell growth inhibition, MOLM-13 leukemia cells (CellTiter-Glo). The note with it: Homo sapiens, MOLM-13, 96 h; 4 days; read-out: IC50 (nM) MOLM-13 Cell Line (CellTiter-Glo assay). The experiment is classed as cell-based. The method in brief:
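MOLM-13 leukemia cells treated with compounds; viability read by CellTiter-Glo luminescence after 10-20 min reagent incubation at room temperature. IC50 derived from luminescent signal.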
Background: In ATP-based viability assays light output follows the ATP content of the culture.

For the compound `COc1cc2c(cc1-c1c(C)noc1C)[nH]c1nc(C)nc(Nc3c(C(C)C)nn(C)c3C)c12` [Cpd. No. 194, 7-(3,5-dimethylisoxazol-4-yl)-N-(3-isopropyl-1,5-dimethyl-1H-pyrazol-4-yl)-6-methoxy-2-methyl-9H-pyrimido[4,5-b]indol-4-amine], the IC50 is 14.2 nM in experiment [1], 59.6 nM in experiment [2], 10.1 nM in experiment [3] and 13.2 nM in experiment [4].
Turning to `COc1cc2c(cc1-c1c(C)noc1C)[nH]c1nc(C)nc(Nc3cn(C)nc3C3CC3)c12` [Cpd. No. 195, N-(3-cyclopropyl-1-methyl-1H-pyrazol-4-yl)-7-(3,5-dimethylisoxazol-4-yl)-6-methoxy-2-methyl-9H-pyrimido[4,5-b]indol-4-amine], the IC50 in experiment [1] worked out at 14.4 nM; in experiment [2], 75.1 nM; in experiment [3], 16.6 nM; in experiment [4], 29.1 nM.
For the compound `COc1cc2c(cc1-c1c(C)noc1C)[nH]c1nc(C)nc(Nc3c(C)cnn3C(C)(C)C)c12` [Cpd. No. 196, N-(1-(tert-butyl)-4-methyl-1H-pyrazol-5-yl)-7-(3,5-dimethylisoxazol-4-yl)-6-methoxy-2-methyl-9H-pyrimido[4,5-b]indol-4-amine], the IC50 came out at 7.5 nM in experiment [1], 52.5 nM in experiment [2], 10 nM in experiment [3] and 32.7 nM in experiment [4].
In the case of `COc1cc2c(cc1-c1c(C)noc1C)[nH]c1nc(C)nc(Nc3c(C)cnn3C3CC3)c12` [Cpd. No. 197, N-(1-cyclopropyl-4-methyl-1H-pyrazol-5-yl)-7-(3,5-dimethylisoxazol-4-yl)-6-methoxy-2-methyl-9H-pyrimido[4,5-b]indol-4-amine], the IC50 stood at 69.9 nM in experiment [1], 511 nM in experiment [2], 70.1 nM in experiment [3] and 357 nM in experiment [4].
As for `COc1cc2c(cc1-c1c(C)noc1C)[nH]c1nc(C)nc(Nc3c(C)cnn3C3CCC3)c12` [Cpd. No. 198, N-(1-cyclobutyl-4-methyl-1H-pyrazol-5-yl)-7-(3,5-dimethylisoxazol-4-yl)-6-methoxy-2-methyl-9H-pyrimido[4,5-b]indol-4-amine], the IC50 in experiment [1] was determined as 3.6 nM; in experiment [2], 58.7 nM; in experiment [3] it was 6.9 nM; in experiment [4] it was 25.7 nM.
In the case of `CCn1cc(Nc2nc(C)nc3[nH]c4cc(-c5c(C)noc5C)c(OC)cc4c23)c(C(C)C)n1` [Cpd. No. 199, 7-(3,5-dimethylisoxazol-4-yl)-N-(1-ethyl-3-isopropyl-1H-pyrazol-4-yl)-6-methoxy-2-methyl-9H-pyrimido[4,5-b]indol-4-amine], the IC50 in experiment [1] was determined as 14.5 nM; in experiment [2], 67.9 nM; in experiment [3], 13.3 nM; in experiment [4] it was 30.5 nM.
For `COc1cc2c(cc1-c1c(C)noc1C)[nH]c1nc(C)nc(Nc3cn(C)nc3C3CCC3)c12` [Cpd. No. 200, N-(3-cyclobutyl-1-methyl-1H-pyrazol-4-yl)-7-(3,5-dimethylisoxazol-4-yl)-6-methoxy-2-methyl-9H-pyrimido[4,5-b]indol-4-amine], the IC50 was 5.9 nM in experiment [1], 40 nM in experiment [2], 10.9 nM in experiment [3] and 25.4 nM in experiment [4].
In the case of `COc1cc2c(cc1-c1c(C)noc1C)[nH]c1nc(C)nc(Nc3cccc4ncccc34)c12` [Cpd. No. 211, 7-(3,5-dimethylisoxazol-4-yl)-6-methoxy-2-methyl-N-(quinolin-5-yl)-9H-pyrimido[4,5-b]indol-4-amine], the IC50 stood at 17 nM in experiment [1], 57 nM in experiment [2], 16 nM in experiment [3] and 76 nM in experiment [4].
For the compound `COc1cc2c(cc1-c1c(C)noc1C)[nH]c1nc(C)nc(Nc3cccc(C)c3)c12` [Cpd. No. 212, 7-(3,5-dimethylisoxazol-4-yl)-6-methoxy-2-methyl-N-m-tolyl-9H-pyrimido[4,5-b]indol-4-amine], the IC50 was 8 nM in experiment [1], 112 nM in experiment [2], 18 nM in experiment [3] and 103 nM in experiment [4].
For `COc1cccc(Nc2nc(C)nc3[nH]c4cc(-c5c(C)noc5C)c(OC)cc4c23)c1` [Cpd. No. 213, 7-(3,5-dimethylisoxazol-4-yl)-6-methoxy-N-(3-methoxyphenyl)-2-methyl-9H-pyrimido[4,5-b]indol-4-amine], the IC50 in experiment [1] amounted to 28 nM; in experiment [2] it was 211 nM; in experiment [3], 54 nM; in experiment [4], 103 nM.
Taken in the same sequence, the figures for `COc1cc2c(cc1-c1c(C)noc1C)[nH]c1nc(C)nc(Nc3cccc(C(F)(F)F)c3)c12` [Cpd. No. 214, 7-(3,5-dimethylisoxazol-4-yl)-6-methoxy-2-methyl-N-(3-(trifluoromethyl)phenyl)-9H-pyrimido[4,5-b]indol-4-amine] were 348 nM, 249 nM, 855 nM and 208 nM.
Taken in the same sequence, the figures for `COc1cc2c(cc1-c1c(C)noc1C)[nH]c1nc(C)nc(Nc3c(C)noc3C)c12` [Cpd. No. 215, N-(7-(3,5-dimethylisoxazol-4-yl)-6-methoxy-2-methyl-9H-pyrimido[4,5-b]indol-4-yl)-3,5-dimethylisoxazol-4-amine] were 57 nM, 360 nM, 128 nM and 318 nM.
`CCc1cccc(Nc2nc(C)nc3[nH]c4cc(-c5c(C)noc5C)c(OC)cc4c23)c1` [Cpd. No. 216, 7-(3,5-dimethylisoxazol-4-yl)-N-(3-ethylphenyl)-6-methoxy-2-methyl-9H-pyrimido[4,5-b]indol-4-amine]: the IC50 in experiment [1] was determined as 35 nM; in experiment [2], 292 nM; in experiment [3] it was 19 nM; in experiment [4], 220 nM.
On to `COc1cc2c(cc1-c1c(C)noc1C)[nH]c1nc(C)nc(Nc3cccc(Cl)c3F)c12` [Cpd. No. 217, N-(3-chloro-2-fluorophenyl)-7-(3,5-dimethylisoxazol-4-yl)-6-methoxy-2-methyl-9H-pyrimido[4,5-b]indol-4-amine], for which the IC50 in experiment [1] is 68 nM; in experiment [2] it was 1930 nM; in experiment [3], 165 nM; in experiment [4], 498 nM.
Taken in the same sequence, the figures for `COc1cc2c(cc1-c1c(C)noc1C)[nH]c1nc(C)nc(Nc3onc(C)c3C)c12` [Cpd. No. 219, N-(7-(3,5-dimethylisoxazol-4-yl)-6-methoxy-2-methyl-9H-pyrimido[4,5-b]indol-4-yl)-3,4-dimethylisoxazol-5-amine] were 365 nM, 849 nM, 219 nM and 912 nM.
As to `COc1cc2c(cc1-c1c(C)noc1C)[nH]c1nc(C)nc(Nc3cccc4[nH]ccc34)c12` [Cpd. No. 220, 7-(3,5-dimethylisoxazol-4-yl)-N-(1H-indol-4-yl)-6-methoxy-2-methyl-9H-pyrimido[4,5-b]indol-4-amine], the IC50 was 9 nM in experiment [1], 72 nM in experiment [2], 17 nM in experiment [3] and 37 nM in experiment [4].
Consider `COc1cc2c(cc1-c1c(C)noc1C)[nH]c1nc(C)nc(Nc3cccc4cnccc34)c12` [Cpd. No. 221, 7-(3,5-dimethylisoxazol-4-yl)-N-(isoquinolin-5-yl)-6-methoxy-2-methyl-9H-pyrimido[4,5-b]indol-4-amine], for which the IC50 stood at 57 nM in experiment [1], 209 nM in experiment [2], 49 nM in experiment [3] and 189 nM in experiment [4].
